Assay results from patent US10441689B2, “Methods and devices for three-dimensional printing or additive manufacturing of bioactive medical devices” (Louisiana Tech Research Corporation, priority 2014, dated 2019).

Experiments:
[1] = test system: E. Coli bacteria; experiment: bacterial broth culture; format: cell-based; settings: 1 mg amounts; for bacterial growth in broth culture, cooked powder: antibiotic powder heated to 220 Celsius for 5 minutes
Method: (§1) In another example embodiment (example 3), PLA pellets were run through a filament extruder with 2% gentamicine powder at 175 Celsius. The resulting filament was tested on bacterial plates using antibiotic susceptibility gel diffusion testing using E. Coli bacteria. A kill zone was observed around the filament. […] The filament is run through a 3D printer head nozzle at 220 Celsius and 300 um fibers are created. […] It should be noted that bacterial plates and cultures were carried out as close to Kirby-Bauer ISO standards as possible being that of 100 mm Mueller Hinton plates or Mueller Hinton broths. E. Coli colonies (Sigma Aldrich Vitroid Origin) used to seed plates were taken from 0.5 McFarland standard solutions in 50 uL quantities. Control plates and broths were used. Control PLA printed discs, beads, stents and catheters were used to compare against antibiotic filaments. Molded bone cement beads, discs and filaments made of Ortho-Right LV bone cements were used as comparison for no antibiotic and antibiotic controls.

[2] = test system: E. Coli bacteria; experiment: bacterial plates, antibiotic susceptibility gel diffusion testing; format: cell-based; settings: 1 mg amounts; for kill zone on bacterial plate, cooked powder: antibiotic powder heated to 220 Celsius for 5 minutes
Method: as §1

Molecule	bacterial growth in broth culture, cooked powder [1]	bacterial growth in broth culture, uncooked control powder [1]	kill zone on bacterial plate, cooked powder [2]	kill zone on bacterial plate, uncooked control powder [2]
NC[C@H]1O[C@H](O[C@H]2[C@H](O)[C@@H](O[C@H]3O[C@H](CO)[C@@H](O)[C@H](N)[C@H]3O)[C@H](N)C[C@@H]2N)[C@H](N)C[C@@H]1O [Tobramycin]	no bacterial growth	no bacterial growth	kill zones	kill zones
Gentamicin	no bacterial growth	no bacterial growth	kill zones	kill zones
